What all share (assay type): cell-based, human
The subject of data set [1] is MBNL1 mRNA exon 7. The data set is described as follows: RT-PCR alternative splicing assay, MBNL1 exon 7. To be noted: DM1 myoblasts, 5 to 60 μM, 7 days (FIG. 12B).
The subject of data set [2] is Normal or DM1 myoblasts. The data set is described as follows: Cytotoxicity assay (Hoescht 33342 / propidium iodide, High Content Screening microscope). As to conditions: for cellular toxicity: 7 days (FIG. 10). The protocol: The cellular toxicity of compounds 15 and 32, and their analogs was also measured using a validated cytotoxicity assay. Normal or DM1 myoblasts were treated with 20 μM of compound or DMSO. The ratio of viable cells was measured with a High Content Screening microscope in live cells treated with Hoescht 33342 (labels all cells) and propidium iodide (labels dead cells). The total number of cells was counted and the number of dead cells was subtracted to obtain the number of viable cells, which is presented as a ratio (drug-treated versus DMSO-treated cells). The percentage of dead cells was also measured using propidium iodide.
The cellular toxicity of the compounds was also measured in a dose-response assay. In this assay, normal (M908) and patient (DM1) myoblasts were treated for 7 days with compound 32 or 196 at concentrations varying from 5 to 60 μM. Cell number and cell death was quantified by High Content Screening microscope, as specified above. […] Indeed, the ratio of viable cells at 20 μM of compound 15 is 0.22 (FIG. 10), while for compound 196, an analogue of compound 15, it is above 1 at the same concentration (FIG. 14C).

For data set [3], the system named is SERCA1 exon 22. As to the kind of experiment: RT-PCR alternative splicing assay, SERCA1 exon 22. As to conditions: DM1 myoblasts, 20 μM, 7 days; WT 59%, DM1 less than 2% (FIG. 8B). The protocol:
Human myoblasts were obtained from the Myosix institute associated with the Association Frangaise contre les Myopathies (AFM). Five primary myoblast lines were obtained as controls, and one line from a DM1 patient with a 3.8 Kb CTG triplet amplification corresponding to approximately 1250 CTG repeats. The human myoblasts are cultivated in HAM-F10 media (SIGMA N6635) with 15% FBS, 1% chick embryo extract, and 390 ng/ml of dexamethasone. One day before adding compounds, 2×10^5 cells were plated in 100 mm plates (for CUGBP1 western blot or RT-PCR alternative splicing assay) or 2×10^4 cells/well are seeded in 12-well plates containing 12 mm round glass coverslips (for FISH to detect RNA foci). […]
For Western blots, CUGBP1 was detected with the 3B1-3D11 monoclonal antibody (mAb) (SIGMA C5112) and GAPDH was detected with the 6C5 mAb (Millipore MAB374). The enhanced chemiluminescence signal (ECL) was acquired and quantified with the ChemiDoc™ MP imaging system (Bio-Rad). […] The alternative splicing of the hnRNPA2/B1 transcript was detected with the primers 5′-[…]-3′ (SEQ ID NO:7) and 5′-[…]-3′ (SEQ ID NO:8). PCR was performed with Taq using standard conditions but the number of amplification cycles was optimized to be in the quantitative range for each gene. […]

Turning to `CCCc1c(C(=O)N(Cc2ccccc2)Cc2cccs2)cnn1-c1ccccc1` [Compound 32], the “dose-response effect on splicing of MBNL1 mRNA” value in data set [1] is recorded as “clear dose-response effect”. Moreover, in data set [2] (20 μM), the cellular toxicity entry is recorded as “little toxicity”. Moreover, the “main phenotype at higher concentrations” value in data set [2] (normal (M908) and DM1 myoblasts, 7 days, 5 to 60 μM) is recorded as “cytostatic effect”. In data set [2] (normal (M908) and DM1 myoblasts, 7 days, concentration of 20 μM and below (FIGS. 14A-D)), the “cytotoxicity in dose-response assay” value is given as “little cytotoxicity”.

With `CCCN(CCC)S(=O)(=O)c1ccc(NS(=O)(=O)Cc2ccccc2)cc1` [Compound 15], the “inclusion of SERCA1 exon 22, of total transcripts” value in data set [3] is recorded as 17%. Besides, in data set [2] (20 μM), the cellular toxicity result is “some toxicity”. In data set [2] (20 μM, 7 days (FIG. 10, FIG. 14C)), the “ratio of viable cells (drug-treated versus DMSO-treated)” value is on record as 0.22.

Values taken from patent US10092574B2, “Inhibitors of polynucleotide repeat-associated RNA foci and uses thereof” (VALORISATION-RECHERCHE, LIMITED PARTNERSHIP, priority 2013, dated 2018).
